Source: patent US10004701B2, “Methods and compositions for treating infection” (UNIVERSITY OF ROCHESTER, priority 2012, dated 2018)
Structures can show the parent of a compound that is named as a salt. Where two headings read alike, the source gives them in different places.

Experiments:
Assay in all cases: AK assay 384-well format, Prestwick library screening
E. faecium = type: cell-based, Enterococcus faecium; settings: Enterococcus faecium, 3 h, 50 μM final drug concentration
[1] = tested on: S. aureus strain USA300-0114; type: cell-based, Staphylococcus aureus; settings: Staphylococcus aureus, USA300, 3 h, 50 μM final drug concentration
K. pneumoniae = type: cell-based, Klebsiella pneumoniae; settings: Klebsiella pneumoniae, 3 h, 50 μM final drug concentration
[2] = tested on: A. baumannii strain 98-37-09; type: cell-based, Acinetobacter baumannii; settings: Acinetobacter baumannii, 983709, 3 h, 50 μM final drug concentration
P. aeruginosa = type: cell-based, Pseudomonas aeruginosa; settings: Pseudomonas aeruginosa, 3 h, 50 μM final drug concentration
E. cloacae = type: cell-based, Enterobacter cloacae; settings: Enterobacter cloacae, 3 h, 50 μM final drug concentration
E. coli = type: cell-based, Escherichia coli; settings: Escherichia coli, 3 h, 50 μM final drug concentration
[3] = 384-well format, cutoff for positive-scoring molecules 3-fold increase, read-out: AK-based Prestwick Library Screening Results, E. faecium (increase in extracellular AK activity)
[4] = 384-well format, cutoff for positive-scoring molecules 3-fold increase, read-out: AK-based Prestwick Library Screening Results, S. aureus (increase in extracellular AK activity)
[5] = 384-well format, cutoff for positive-scoring molecules 3-fold increase, read-out: AK-based Prestwick Library Screening Results, K. pneumoniae (increase in extracellular AK activity)
[6] = 384-well format, cutoff for positive-scoring molecules 3-fold increase, read-out: AK-based Prestwick Library Screening Results, A. baumannii (increase in extracellular AK activity)
[7] = 384-well format, cutoff for positive-scoring molecules 3-fold increase, read-out: AK-based Prestwick Library Screening Results, P. aeruginosa (increase in extracellular AK activity)
[8] = 384-well format, cutoff for positive-scoring molecules 3-fold increase, read-out: AK-based Prestwick Library Screening Results, E. cloacae (increase in extracellular AK activity)
[9] = 384-well format, cutoff for positive-scoring molecules 3-fold increase, read-out: AK-based Prestwick Library Screening Results, E. coli (increase in extracellular AK activity)
[10] = planktonic, cutoff for positive-scoring molecules 3-fold increase, read-out: AK-based Prestwick Library Screening Results, E. faecium (fold increase in extracellular AK activity)
[11] = planktonic, cutoff for positive-scoring molecules 3-fold increase, read-out: AK-based Prestwick Library Screening Results, S. aureus (fold increase in extracellular AK activity)
[12] = planktonic, cutoff for positive-scoring molecules 3-fold increase, read-out: AK-based Prestwick Library Screening Results, K. pneumoniae (fold increase in extracellular AK activity)
[13] = planktonic, cutoff for positive-scoring molecules 3-fold increase, read-out: AK-based Prestwick Library Screening Results, A. baumannii (fold increase in extracellular AK activity)
[14] = planktonic, cutoff for positive-scoring molecules 3-fold increase, read-out: AK-based Prestwick Library Screening Results, P. aeruginosa (fold increase in extracellular AK activity)
[15] = planktonic, cutoff for positive-scoring molecules 3-fold increase, read-out: AK-based Prestwick Library Screening Results, E. cloacae (fold increase in extracellular AK activity)
[16] = planktonic, cutoff for positive-scoring molecules 3-fold increase, read-out: AK-based Prestwick Library Screening Results, E. coli (fold increase in extracellular AK activity)

CCNCC(O)c1cccc(O)c1 (stereo not drawn) [Etilefrine hydrochloride]
fold induction at 50 µM (E. faecium; planktonic E. faecium, positive cutoff 3-fold increase, read-out: AK-based Prestwick library screening result, E. faecium (fold increase in extracellular AK activity)): 1
fold induction at 50 µM ([1]; planktonic S. aureus, positive cutoff 3-fold increase, read-out: AK-based Prestwick library screening result, S. aureus (fold increase in extracellular AK activity)): 1.1
fold induction at 50 µM (K. pneumoniae; planktonic K. pneumoniae, positive cutoff 3-fold increase, read-out: AK-based Prestwick library screening result, K. pneumoniae (fold increase in extracellular AK activity)): 0.8
fold induction at 50 µM ([2]; planktonic A. baumannii, positive cutoff 3-fold increase, read-out: AK-based Prestwick library screening result, A. baumannii (fold increase in extracellular AK activity)): 1.4
fold induction at 50 µM (P. aeruginosa; planktonic P. aeruginosa, positive cutoff 3-fold increase, read-out: AK-based Prestwick library screening result, P. aeruginosa (fold increase in extracellular AK activity)): 1.1
fold induction at 50 µM (E. cloacae; planktonic E. cloacae, positive cutoff 3-fold increase, read-out: AK-based Prestwick library screening result, E. cloacae (fold increase in extracellular AK activity)): 1.5
fold induction at 50 µM (E. coli; planktonic E. coli, positive cutoff 3-fold increase, read-out: AK-based Prestwick library screening result, E. coli (fold increase in extracellular AK activity)): 1

CCc1cccc2c3c([nH]c12)C(CC)(CC(=O)O)OCC3 (stereo not drawn) [Etodolac]
fold induction at 50 µM (E. faecium; planktonic E. faecium, 384-well, cutoff for positive-scoring molecules 3-fold increase, read-out: AK-based Prestwick Library Screening Results: E. faecium (increase in extracellular AK activity)): 1.1
fold induction at 50 µM ([1]; planktonic S. aureus, 384-well, cutoff for positive-scoring molecules 3-fold increase, read-out: AK-based Prestwick Library Screening Results: S. aureus (increase in extracellular AK activity)): 1
fold induction at 50 µM (K. pneumoniae; planktonic K. pneumoniae, 384-well, cutoff for positive-scoring molecules 3-fold increase, read-out: AK-based Prestwick Library Screening Results: K. pneumoniae (increase in extracellular AK activity)): 1.3
fold induction at 50 µM ([2]; planktonic A. baumannii, 384-well, cutoff for positive-scoring molecules 3-fold increase, read-out: AK-based Prestwick Library Screening Results: A. baumannii (increase in extracellular AK activity)): 1.4
fold induction at 50 µM (P. aeruginosa; planktonic P. aeruginosa, 384-well, cutoff for positive-scoring molecules 3-fold increase, read-out: AK-based Prestwick Library Screening Results: P. aeruginosa (increase in extracellular AK activity)): 1.5
fold induction at 50 µM (E. cloacae; planktonic E. cloacae, 384-well, cutoff for positive-scoring molecules 3-fold increase, read-out: AK-based Prestwick Library Screening Results: E. cloacae (increase in extracellular AK activity)): 1.2
fold induction at 50 µM (E. coli; planktonic E. coli, 384-well, […], read-out: AK-based Prestwick Library Screening Results: E. coli (increase in extracellular AK activity)): 1.2

Cn1c(=O)c2c(ncn2CCO)n(C)c1=O [Etofylline]
fold induction at 50 µM (E. faecium; [3]): 1
fold induction at 50 µM [1, 4]: 0.8
fold induction at 50 µM (K. pneumoniae; [5]): 0.6
fold induction at 50 µM [2, 6]: 0.8
fold induction at 50 µM (P. aeruginosa; [7]): 0.7
fold induction at 50 µM (E. cloacae; [8]): 0.9
fold induction at 50 µM (E. coli; [9]): 0.8

COc1cc([C@@H]2c3cc4c(cc3[C@@H](O[C@@H]3O[C@@H]5CO[C@@H](C)O[C@H]5[C@H](O)[C@H]3O)[C@H]3COC(=O)[C@H]23)OCO4)cc(OC)c1O [Etoposide]
fold induction at 50 µM (E. faecium; planktonic, cutoff for positive 3-fold increase, read-out: AK-based Prestwick Library Screening Results, E. faecium (fold increase in extracellular AK activity)): 1.1
fold induction at 50 µM ([1]; planktonic, cutoff for positive 3-fold increase, read-out: AK-based Prestwick Library Screening Results, S. aureus (fold increase in extracellular AK activity)): 1.4
fold induction at 50 µM (K. pneumoniae; planktonic, cutoff for positive 3-fold increase, read-out: AK-based Prestwick Library Screening Results, K. pneumoniae (fold increase in extracellular AK activity)): 1
fold induction at 50 µM ([2]; planktonic, cutoff for positive 3-fold increase, read-out: AK-based Prestwick Library Screening Results, A. baumannii (fold increase in extracellular AK activity)): 1.2
fold induction at 50 µM (P. aeruginosa; planktonic, cutoff for positive 3-fold increase, read-out: AK-based Prestwick Library Screening Results, P. aeruginosa (fold increase in extracellular AK activity)): 1
fold induction at 50 µM (E. cloacae; planktonic, cutoff for positive 3-fold increase, read-out: AK-based Prestwick Library Screening Results, E. cloacae (fold increase in extracellular AK activity)): 1.4
fold induction at 50 µM (E. coli; planktonic, […], read-out: AK-based Prestwick Library Screening Results, E. coli (fold increase in extracellular AK activity)): 1.2

CC1CC(OC(=O)C(O)c2ccccc2)CC(C)(C)N1C (stereo not drawn) [Eucatropine hydrochloride]
fold induction at 50 µM (E. faecium; cutoff for positive-scoring molecules 3-fold increase, read-out: AK-based Prestwick Library Screening Results, E. faecium (fold increase in extracellular AK activity)): 1.1
fold induction at 50 µM ([1]; cutoff for positive-scoring molecules 3-fold increase, read-out: AK-based Prestwick Library Screening Results, S. aureus (fold increase in extracellular AK activity)): 1.3
fold induction at 50 µM (K. pneumoniae; cutoff for positive-scoring molecules 3-fold increase, read-out: AK-based Prestwick Library Screening Results, K. pneumoniae (fold increase in extracellular AK activity)): 0.9
fold induction at 50 µM ([2]; cutoff for positive-scoring molecules 3-fold increase, read-out: AK-based Prestwick Library Screening Results, A. baumannii (fold increase in extracellular AK activity)): 1.1
fold induction at 50 µM (P. aeruginosa; cutoff for positive-scoring molecules 3-fold increase, read-out: AK-based Prestwick Library Screening Results, P. aeruginosa (fold increase in extracellular AK activity)): 1.1
fold induction at 50 µM (E. cloacae; cutoff for positive-scoring molecules 3-fold increase, read-out: AK-based Prestwick Library Screening Results, E. cloacae (fold increase in extracellular AK activity)): 1.6
fold induction at 50 µM (E. coli; cutoff for positive-scoring molecules 3-fold increase, read-out: AK-based Prestwick Library Screening Results, E. coli (fold increase in extracellular AK activity)): 1.2

COc1c2ccoc2nc2c(OC)c(OCC(O)C(C)(C)O)ccc12 (stereo not drawn) [Evoxine]
fold induction at 50 µM (E. faecium; [10]): 0.8
fold induction at 50 µM [1, 11]: 0.6
fold induction at 50 µM (K. pneumoniae; [12]): 0.7
fold induction at 50 µM [2, 13]: 0.7
fold induction at 50 µM (P. aeruginosa; [14]): 0.8
fold induction at 50 µM (E. cloacae; [15]): 1.1
fold induction at 50 µM (E. coli; [16]): 0.7

NC(N)=Nc1nc(CSCCC(N)=NS(N)(=O)=O)cs1 [Famotidine]
fold induction at 50 µM (E. faecium; [3]): 0.8
fold induction at 50 µM [1, 4]: 0.5
fold induction at 50 µM (K. pneumoniae; [5]): 0.8
fold induction at 50 µM [2, 6]: 0.8
fold induction at 50 µM (P. aeruginosa; [7]): 0.8
fold induction at 50 µM (E. cloacae; [8]): 1
fold induction at 50 µM (E. coli; [9]): 0.9

CC(C)c1c(CN(C)C(C)Cc2ccccc2)n(C)n(-c2ccccc2)c1=O (stereo not drawn) [Famprofazone]
fold induction at 50 µM (E. faecium; […], read-out: AK-based Prestwick Library Screening Results, E. faecium (fold increase in extracellular AK activity)): 1
fold induction at 50 µM ([1]; […], read-out: AK-based Prestwick Library Screening Results, S. aureus (fold increase in extracellular AK activity)): 0.8
fold induction at 50 µM (K. pneumoniae; […], read-out: AK-based Prestwick Library Screening Results, K. pneumoniae (fold increase in extracellular AK activity)): 1.1
fold induction at 50 µM ([2]; […], read-out: AK-based Prestwick Library Screening Results, A. baumannii (fold increase in extracellular AK activity)): 1.1
fold induction at 50 µM (P. aeruginosa; […], read-out: AK-based Prestwick Library Screening Results, P. aeruginosa (fold increase in extracellular AK activity)): 1.2
fold induction at 50 µM (E. cloacae; […], read-out: AK-based Prestwick Library Screening Results, E. cloacae (fold increase in extracellular AK activity)): 1.5
fold induction at 50 µM (E. coli; […], read-out: AK-based Prestwick Library Screening Results, E. coli (fold increase in extracellular AK activity)): 1.2

O=C(O)Cc1ccc(-c2ccccc2)cc1 [Felbinac]
fold induction at 50 µM (E. faecium; [10]): 0.9
fold induction at 50 µM [1, 11]: 0.6
fold induction at 50 µM (K. pneumoniae; [12]): 0.6
fold induction at 50 µM [2, 13]: 0.8
fold induction at 50 µM (P. aeruginosa; [14]): 0.7
fold induction at 50 µM (E. cloacae; [15]): 1
fold induction at 50 µM (E. coli; [16]): 0.7
